The text below walks through data of ChEMBL document CHEMBL1201862, “PubChem BioAssay data set” (2004).

SMILES strings stand for the structures.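 Compound exposure: 48 hours, 5 concentrations, 96-well plates. The concentration for 50% growth inhibition is given as GI50.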 The source made the active and inactive calls. No stated cut-off is given here; in the data, active = GI50 up to about 1.1 µM and inactive = higher.

Some test systems named below: BT-549; EKVX; HCC 2998; HT-29; Hs-578T; M14; MOLT-4; NCI-H522; OVCAR-4; OVCAR-5; SF-268; SF-539; SK-MEL-2; SK-OV-3; T47D; U-251; UACC-257; UACC-62; UO-31; SR.
Common to all, as to experiment: NCI tumour cell line growth inhibition, 48 h

Consider `CCOC(=O)C1=C(C)NC(C)=C(C(=O)OCC)C1c1ccc(Cl)cc1`, for which the GI50 in the assay on BT-549 is 17.1 µM (inactive); in the assay on EKVX, 16.8 µM (inactive); in the assay on HCC 2998, 14.7 µM (inactive); in the assay on HT-29 it was 10.9 µM (inactive); in the assay with Hs-578T, 19.6 µM (inactive); with M14, 16.6 µM (inactive). Also, the GI50 was 6.1 µM (inactive) with MOLT-4; 16 µM (inactive) in the assay with NCI-H522; 12.5 µM (inactive) with OVCAR-4; 13.4 µM (inactive) in the assay with OVCAR-5; 17.5 µM (inactive) in the assay on SF-268; 18.8 µM (inactive) with SF-539. Besides, the GI50 was 18.7 µM (inactive) in the assay with SK-MEL-2; 16.7 µM (inactive) in the assay on SK-OV-3; 15.6 µM (inactive) in the assay with T47D; 16.8 µM (inactive) in the assay on U-251; 13.4 µM (inactive) with UACC-257; 12.1 µM (inactive) in the assay on UACC-62. Moreover, the GI50 in the assay on UO-31 was 20.3 µM (inactive).

As to `COc1ccc(/C=N/n2c(Cc3ccccc3)n[nH]c2=O)cc1`, the GI50 with BT-549 is 29.1 µM (inactive); in the assay on EKVX, > 100 µM (inactive); with HCC 2998, > 100 µM (inactive); in the assay with HT-29, > 100 µM (inactive); with Hs-578T, 32.3 µM (inactive); with M14, > 100 µM (inactive). Further, the GI50 with MOLT-4 was > 100 µM (inactive); with OVCAR-4, > 100 µM (inactive); with OVCAR-5 it was > 100 µM (inactive); in the assay with SF-268 it was 42.3 µM (inactive); with SF-539, > 100 µM (inactive); in the assay with SK-MEL-2, > 100 µM (inactive). Further, the GI50 with SK-OV-3 was > 100 µM (inactive); with T47D, > 100 µM (inactive); in the assay with U-251 it was 37 µM (inactive); in the assay with UACC-257, > 100 µM (inactive); in the assay with UACC-62, > 100 µM (inactive); in the assay on UO-31, > 100 µM (inactive).

Regarding `O=c1c(C(c2ccc3c(c2)Cc2ccccc2-3)c2c(O)oc3ccccc3c2=O)c(O)oc2ccccc12`, the GI50 was 27.4 µM (inactive) with BT-549; 48.9 µM (inactive) in the assay with EKVX; 18.7 µM (inactive) in the assay with HCC 2998; > 100 µM (inactive) with HT-29; 25.6 µM (inactive) in the assay on Hs-578T; 20.5 µM (inactive) in the assay with M14. The GI50 in the assay with MOLT-4 was 40.6 µM (inactive); with NCI-H522 it was 21.9 µM (inactive); with OVCAR-4, 31.8 µM (inactive); with OVCAR-5 it was 23.7 µM (inactive); in the assay with SF-268 it was 23.9 µM (inactive); in the assay on SF-539, 21.4 µM (inactive). The GI50 in the assay with SK-MEL-2 was 31.9 µM (inactive); in the assay on SK-OV-3, 31.3 µM (inactive); in the assay on T47D it was 41.5 µM (inactive); in the assay with U-251, 23.9 µM (inactive); in the assay on UACC-257, 34.6 µM (inactive); in the assay on UACC-62, 22.3 µM (inactive). For the same molecule, the GI50 in the assay with UO-31 is 16.7 µM (inactive).

Take `CC(C)(C)OC(=O)CN1CCNCCNCC1`: the GI50 with BT-549, in the assay on EKVX, with HT-29, with Hs-578T, in the assay with M14 and in the assay on MOLT-4 was > 100 µM (inactive) each time. Besides, the GI50 in the assay with NCI-H522, with OVCAR-4, in the assay with OVCAR-5, in the assay on SF-268, in the assay on SF-539 and in the assay on SK-MEL-2 was > 100 µM (inactive) each time. Besides, the GI50 in the assay with SK-OV-3, with SR, with T47D, with U-251, with UACC-257 and in the assay on UACC-62 was > 100 µM (inactive) each time. In addition, in the assay with UO-31, the GI50 is > 100 µM (inactive).

With `CC(C)CCCC(C)[C@H]1CC[C@H]2[C@@H]3CC[C@H]4C[C@@H](CCC=C(c5cc(Cl)c(O)c(C(=O)OC(C)(C)C)c5)c5cc(Cl)c(O)c(C(=O)OC(C)(C)C)c5)CC[C@]4(C)[C@H]3CC[C@]12C` (stereo not given in full), the GI50 in the assay on BT-549, with EKVX, with HCC 2998, in the assay with HT-29, with Hs-578T and in the assay with M14 was > 50 µM (inactive) in each case. The GI50 with MOLT-4 is > 50 µM (inactive); in the assay on OVCAR-4 it was > 50 µM (inactive); with OVCAR-5 it was > 50 µM (inactive); in the assay with SF-268 it was > 50 µM (inactive); with SF-539 it was 15.7 µM (inactive); with SK-MEL-2 it was > 50 µM (inactive). The GI50 with SK-OV-3, in the assay with T47D, with U-251 and in the assay with UACC-62 was > 50 µM (inactive) throughout.

For the molecule `COc1c(Cl)ccc(Cl)c1C(=O)NNC(=O)c1c(Cl)c(Cl)c(Cl)c(Cl)c1-c1nc2cc(C(=O)c3ccccc3)ccc2[nH]1`, the GI50 in the assay with BT-549 was 67.3 µM (inactive); in the assay on EKVX it was 36.8 µM (inactive); in the assay with HT-29 it was 62.1 µM (inactive); in the assay with Hs-578T it was 54.1 µM (inactive); in the assay with M14, 52.6 µM (inactive); in the assay on MOLT-4 it was 20.6 µM (inactive). The GI50 was 33.1 µM (inactive) in the assay with NCI-H522; 44.9 µM (inactive) with OVCAR-4; > 100 µM (inactive) with OVCAR-5; 34.3 µM (inactive) in the assay on SF-268; > 100 µM (inactive) with SF-539; 31.9 µM (inactive) in the assay with SK-MEL-2. The GI50 in the assay on SK-OV-3 was > 100 µM (inactive); in the assay with SR, 37.2 µM (inactive); in the assay with T47D, 15.5 µM (inactive); in the assay with U-251, 53.2 µM (inactive); in the assay on UACC-257, 76.6 µM (inactive); in the assay on UO-31 it was 60.4 µM (inactive).

In the case of `CC(C(=O)NCNC(=O)c1ccccc1)C(=O)NCc1ccccc1` (stereo not given), the GI50 with BT-549, in the assay on EKVX, in the assay with HT-29, in the assay with Hs-578T, with M14 and in the assay with MOLT-4 was > 100 µM (inactive) in each case. The GI50 is 99.3 µM (inactive) in the assay with NCI-H522; > 100 µM (inactive) in the assay with OVCAR-5; > 100 µM (inactive) in the assay with SF-268; > 100 µM (inactive) in the assay with SF-539; > 100 µM (inactive) with SK-MEL-2; > 100 µM (inactive) in the assay on SK-OV-3. Also, the GI50 in the assay with SR, in the assay with T47D, in the assay on U-251, with UACC-257, with UACC-62 and with UO-31 was > 100 µM (inactive) each time.

With `c1csc(-c2ccc(-c3cccs3)c3nsnc23)c1`, the GI50 in the assay with BT-549 is > 52.7 µM (inactive); in the assay with EKVX it was 2.23 µM (inactive); with HT-29, 49.8 µM (inactive); in the assay with Hs-578T, 16.5 µM (inactive); in the assay on M14, 37.8 µM (inactive); in the assay on MOLT-4 it was 8.89 µM (inactive). For the same molecule, the GI50 is > 100 µM (inactive) in the assay on NCI-H522; 0.608 µM (active) in the assay on OVCAR-4; 33.7 µM (inactive) in the assay with SF-268; 24.4 µM (inactive) in the assay with SF-539; > 48.6 µM (inactive) with SK-MEL-2; > 49.7 µM (inactive) with SK-OV-3. Also, the GI50 in the assay with SR is 6.47 µM (inactive); in the assay with T47D, 0.141 µM (active); with U-251, 30.2 µM (inactive); with UACC-257 it was > 65 µM (inactive); with UACC-62 it was > 100 µM (inactive); in the assay with UO-31 it was 43.4 µM (inactive).
